The values that follow come from patent US11633459B2, “GIP derivatives and uses thereof” (priority 2018, dated 2023).

Series [1] can be described thus: Pharmacokinetic study in minipigs, terminal half-life after i.v. administration. The note with it: female, Göttingen, minipig, plasma, iv, 5 nmol/kg.
Protocol: Pharmacokinetic Study in Minipigs
The purpose of this study is to determine the half-life in vivo of the derivatives of the present invention after i.v. administration to minipigs, i.e. the prolongation of their time in the body and thereby their time of action. This is done in a pharmacokinetic (PK) study, where the terminal half-life of the derivative in question is determined. By terminal half-life is generally meant the period of time it takes to halve a certain plasma concentration, measured after the initial distribution phase.
Female Göttingen minipigs were obtained from Ellegaard Göttingen Minipigs (Dalmose, Denmark) approximately 7-14 months of age and weighing from approximately 16-35 kg were used in the studies. The minipigs were housed individually and fed restrictedly once daily with SDS minipig diet (Special Diets Services, Essex, UK).
After at 3 weeks of acclimatisation two permanent central venous catheters were implanted in vena cava caudalis in each animal. The animals were allowed 1 week recovery after the surgery, and were then used for repeated pharmacokinetic studies with a suitable wash-out period between successive derivative dosing.
Blood samples (for example 0.8 ml) were collected in EDTA buffer (8 mM) and then centrifuged at 4° C. and 1942G for 10 minutes.
Individual plasma concentration-time profiles were analysed by a non-compartmental model in Phoenix WinNonLin ver. […] (Pharsight Inc., Mountain View, Calif., USA), and the resulting terminal half-lives (harmonic mean) determined.
A further series concerns the target T1, human GIP receptor (Homo sapiens, UniProt P48546).
T1 construct: expressed in transfected cells; host or cells: BHK cells (parent line BHKTS13), clone BHK CRE luc2P hGIPR clone #5
T1 sequence (P48546 22-466): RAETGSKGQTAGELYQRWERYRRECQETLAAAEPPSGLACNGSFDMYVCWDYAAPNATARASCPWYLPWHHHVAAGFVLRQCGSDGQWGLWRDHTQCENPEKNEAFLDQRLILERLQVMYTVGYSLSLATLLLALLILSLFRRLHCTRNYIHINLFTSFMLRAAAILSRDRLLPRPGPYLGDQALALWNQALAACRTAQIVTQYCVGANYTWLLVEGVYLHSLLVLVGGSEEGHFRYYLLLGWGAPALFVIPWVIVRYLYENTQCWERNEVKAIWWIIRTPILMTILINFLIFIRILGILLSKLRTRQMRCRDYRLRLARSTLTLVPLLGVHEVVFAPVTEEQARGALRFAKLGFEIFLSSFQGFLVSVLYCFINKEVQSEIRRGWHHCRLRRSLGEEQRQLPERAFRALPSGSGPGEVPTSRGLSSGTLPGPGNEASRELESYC
As to the kind of experiment: In vitro potency, CRE luciferase reporter gene assay, whole BHK cells expressing human GIP receptor. The note with it: 0.2% HSA. The class given is cell-based. The method, then: (§1) In Vitro Potency (CRE Luciferase; Whole Cells)
(§2) The in vitro potency is the measure of human GIP, GLP-1 or glucagon receptor activation, respectively, in a whole cell assay.
(§3) In vitro potency was determined by measuring the response of the human GIP, GLP-1 or glucagon receptor in a reporter gene assay in individual cell lines. […] When the respective receptor is activated it results in the production of cAMP, which in turn results in the luciferase protein being expressed. When assay incubation is completed the luciferase substrate (luciferin) is added and the enzyme converts luciferin to oxyluciferin to produce bioluminescence. The luminescence is measured as the readout for the assay.
(§4) The cells were derived from a clone containing the CRE luciferase element and were established by further transfection with the respective receptor to obtain the current clone.
(§5) The cells were cultured at 5% CO2 in Cell Culture Medium. They were aliquoted and stored in liquid nitrogen. The cells were kept in passage and were seeded out the day before each assay.
(§6) The Assay Buffer consisted of 1% ovalbumin and 0.1% Pluronic F-68 in Assay Medium with the addition of human serum albumin at twice the indicated concentrations.
(§7) 1) Cells were plated at 5000 cells/well and incubated overnight.
(§8) 2) Cells were washed three times in PBS.
(§9) 3) Assay Medium (50 μl aliquot) with or without serum albumin was added to each well in the assay plate.
(§10) 4) Stocks of the test compounds and reference compounds were diluted to a concentration of 0.2 μM in Assay Buffer. […] 8) The cells were washed three times with PBS plus some liquid in each well. 9) A 100 μl aliquot of steadylite plus reagent was added to each well of the assay plate (reagent was light sensitive). 10) Each assay plate was covered with aluminum foil to protect it from light and shaken for 30 min at room temperature. 11) Each assay plate was read in a microtiter plate reader. Calculations and Results
The data from the microtiter plate reader was transferred to GraphPad Prism software. The software performs a non-linear regression (log(agonist) vs response).
A minimum of two replicates was measured for each sample. The reported values are averages of the replicates.

The target of another series is T2, human glucagon receptor (Homo sapiens, UniProt P47871).
T2 construct: expressed in transfected cells; host or cells: BHK cells (parent line BHKTS13), clone BHK CRE luc2P hGCGR clone #18
T2 sequence (P47871 26-477): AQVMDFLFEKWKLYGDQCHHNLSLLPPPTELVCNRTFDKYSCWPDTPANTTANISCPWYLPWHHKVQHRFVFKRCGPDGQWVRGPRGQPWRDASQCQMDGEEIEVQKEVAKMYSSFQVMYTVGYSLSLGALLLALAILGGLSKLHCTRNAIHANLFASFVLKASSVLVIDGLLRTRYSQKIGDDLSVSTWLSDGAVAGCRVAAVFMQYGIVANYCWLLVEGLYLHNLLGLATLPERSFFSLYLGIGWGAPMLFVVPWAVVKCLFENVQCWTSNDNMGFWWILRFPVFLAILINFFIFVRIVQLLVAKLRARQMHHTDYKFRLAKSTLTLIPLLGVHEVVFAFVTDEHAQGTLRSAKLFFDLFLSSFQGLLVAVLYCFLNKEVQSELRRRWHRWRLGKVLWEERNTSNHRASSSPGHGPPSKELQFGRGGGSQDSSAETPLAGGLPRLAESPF
As to the kind of experiment: In vitro potency, CRE luciferase reporter gene assay, whole BHK cells expressing human glucagon receptor. Type of series: cell-based. Conditions: 0.2% HSA. The method, then:
as §1, §2, §3, §4, §5, §6, §7, §8, §9, §10
(§11) The data from the microtiter plate reader was transferred to GraphPad Prism software. […]
(§12) A minimum of two replicates was measured for each sample. […]
On the technique in general: A reporter such as luciferase makes a cellular process visible.

In the next series the target is T3, human GLP-1 receptor (Homo sapiens, UniProt P43220).
T3 construct: expressed in transfected cells; host or cells: BHK cells (parent line BHKTS13), clone BHK CRE luc2P hGLP-1R clone #6
T3 sequence (P43220 24-463): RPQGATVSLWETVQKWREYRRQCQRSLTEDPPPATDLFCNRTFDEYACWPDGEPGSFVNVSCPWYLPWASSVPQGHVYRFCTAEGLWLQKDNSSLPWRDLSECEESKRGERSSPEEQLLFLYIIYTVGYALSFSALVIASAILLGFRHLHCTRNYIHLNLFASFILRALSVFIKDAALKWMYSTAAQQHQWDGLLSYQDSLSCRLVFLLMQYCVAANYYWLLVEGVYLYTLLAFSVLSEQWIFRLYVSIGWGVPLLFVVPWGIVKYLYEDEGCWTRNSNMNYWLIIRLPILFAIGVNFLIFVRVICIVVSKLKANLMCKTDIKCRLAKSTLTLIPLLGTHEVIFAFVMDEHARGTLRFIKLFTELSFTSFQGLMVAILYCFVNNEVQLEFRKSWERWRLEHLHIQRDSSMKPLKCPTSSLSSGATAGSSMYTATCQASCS
As to the kind of experiment: In vitro potency, CRE luciferase reporter gene assay, whole BHK cells expressing human GLP-1 receptor. Conditions: 0.2% HSA. Type of series: cell-based. The method, then:
as §1, §2, §3, §4, §5, §6, §7, §8, §9, §10, §11, §12

*1 amine or outer side, *2 acyl side, *3 side chain or, on linkers, in order; H or OH if unused. Where a SMILES comes first, the peptide text is derived from it. Where no end group is shown, it is not given here. Side-chain parts run from the residue outwards. [ ]: non-standard residue; d: D form. The star is where a group is joined. X1 = O=C(O)CCCCCCCCCCCCCCCCCCC(=O)NCC1CCC(C(=O)*)CC1; C18 diacid = O=C(O)CCCCCCCCCCCCCCCCC(=O)*; γGlu = O=C(O)[C@H](CCC(=O)[*:2])N[*:1]; Nle = CCCC[C@H](N)C(=O)O; AEEA = NCCOCCOCC(=O)O; Aib = CC(C)(N)C(=O)O A value given as a limit tells only on which side of the number the result lay.

Usually half-life stands for the time needed for the level to fall by half in the phase considered. Broadly, the EC50 is the concentration giving half of the maximal effect. A low value points to greater potency. In turn, `CCCC[C@H](NC(=O)[C@H](C)NC(=O)[C@@H](NC(=O)[C@H](CO)NC(=O)[C@H](Cc1ccc(O)cc1)NC(=O)[C@H](CC(=O)O)NC(=O)[C@H](CO)NC(=O)[C@@H](NC(=O)[C@H](Cc1ccccc1)NC(=O)[C@@H](NC(=O)CNC(=O)[C@H](CCC(=O)O)NC(=O)C(C)(C)NC(=O)[C@@H](N)Cc1ccc(O)cc1)[C@@H](C)O)[C@@H](C)CC)[C@@H](C)CC)C(=O)N[C@@H](CC(=O)O)C(=O)N[C@@H](CCCCN)C(=O)N[C@H](C(=O)N[C@@H](CCCNC(=N)N)C(=O)N[C@@H](CCC(N)=O)C(=O)N[C@@H](CCC(N)=O)C(=O)N[C@@H](CC(=O)O)C(=O)N[C@@H](Cc1ccccc1)C(=O)N[C@H](C(=O)N[C@@H](CCCCNC(=O)COCCOCCNC(=O)COCCOCCNC(=O)CC[C@H](NC(=O)C1CCC(CNC(=O)CCCCCCCCCCCCCCCCCCC(=O)O)CC1)C(=O)O)C(=O)N[C@@H](Cc1c[nH]c2ccccc12)C(=O)N[C@@H](CC(C)C)C(=O)N[C@@H](CC(C)C)C(=O)N[C@@H](C)C(=O)N[C@@H](CCC(N)=O)C(=O)N[C@@H](CCCCN)C(=O)NCC(=O)O)C(C)C)[C@@H](C)CC` (stereo partly drawn) [Compound 3, N{Epsilon-24}-[2-[2-[2-[[2-[2-[2-[[(4S)-4-carboxy-4-[[4-[(19-carboxynonadecanoylamino)methyl]cyclohexanecarbonyl]amino]butanoyl]amino]ethoxy]ethoxy]acetyl]amino]ethoxy]ethoxy]acetyl]-[Aib2,Nle14,Arg18,Lys24]-hGIP(1-31)] had a half-life in series [1] of 96 h. In addition, the EC50 at human GIP receptor stood at 0.0447 nM.

In series [1], `CCCC[C@H](NC(=O)[C@H](C)NC(=O)[C@@H](NC(=O)[C@H](CO)NC(=O)[C@H](Cc1ccc(O)cc1)NC(=O)[C@H](CC(=O)O)NC(=O)[C@H](CO)NC(=O)[C@@H](NC(=O)[C@H](Cc1ccccc1)NC(=O)[C@@H](NC(=O)CNC(=O)[C@H](CCC(=O)O)NC(=O)C(C)(C)NC(=O)[C@@H](N)Cc1ccc(O)cc1)[C@@H](C)O)[C@@H](C)CC)[C@@H](C)CC)C(=O)N[C@@H](CC(=O)O)C(=O)N[C@@H](CCCCN)C(=O)N[C@H](C(=O)N[C@@H](CCCNC(=N)N)C(=O)N[C@@H](CCC(N)=O)C(=O)N[C@@H](CCC(N)=O)C(=O)N[C@@H](CC(=O)O)C(=O)N[C@@H](Cc1ccccc1)C(=O)N[C@H](C(=O)N[C@@H](CCCCNC(=O)CC[C@H](NC(=O)CC[C@H](NC(=O)CC[C@H](NC(=O)C1CCC(CNC(=O)CCCCCCCCCCCCCCCCCCC(=O)O)CC1)C(=O)O)C(=O)O)C(=O)O)C(=O)N[C@@H](Cc1c[nH]c2ccccc12)C(=O)N[C@@H](CC(C)C)C(=O)N[C@@H](CC(C)C)C(=O)N[C@@H](C)C(=O)N[C@@H](CCC(N)=O)C(=O)N[C@@H](CCCCN)C(=O)NCC(=O)O)C(C)C)[C@@H](C)CC` (stereo partly drawn) [Compound 4, N{Epsilon-24}-[(4S)-4-carboxy-4-[[(4S)-4-carboxy-4-[[(4S)-4-carboxy-4-[[4-[(19-carboxynonadecanoylamino)methyl]cyclohexanecarbonyl]amino]butanoyl]amino]butanoyl]amino]butanoyl]-[Aib2,Nle14,Arg18,Lys24]-hGIP(1-31)] gave a half-life of 124 h. At human GIP receptor, this compound displayed an EC50 of 0.0721 nM.

With `CCCC[C@H](NC(=O)[C@H](C)NC(=O)[C@@H](NC(=O)[C@H](CO)NC(=O)[C@H](Cc1ccc(O)cc1)NC(=O)[C@H](CC(=O)O)NC(=O)[C@H](CO)NC(=O)[C@@H](NC(=O)[C@H](Cc1ccccc1)NC(=O)[C@@H](NC(=O)CNC(=O)[C@H](CCC(=O)O)NC(=O)C(C)(C)NC(=O)[C@@H](N)Cc1ccc(O)cc1)[C@@H](C)O)[C@@H](C)CC)[C@@H](C)CC)C(=O)N[C@@H](CC(=O)O)C(=O)N[C@@H](CCCCN)C(=O)N[C@H](C(=O)N[C@@H](CCCNC(=N)N)C(=O)N[C@@H](CCC(N)=O)C(=O)NC(C)(C)C(=O)N[C@@H](CC(=O)O)C(=O)N[C@@H](Cc1ccccc1)C(=O)N[C@H](C(=O)N[C@@H](CCCCNC(=O)CC[C@H](NC(=O)CC[C@H](NC(=O)CC[C@H](NC(=O)C1CCC(CNC(=O)CCCCCCCCCCCCCCCCCCC(=O)O)CC1)C(=O)O)C(=O)O)C(=O)O)C(=O)N[C@@H](Cc1c[nH]c2ccccc12)C(=O)N[C@@H](CC(C)C)C(=O)N[C@@H](CC(C)C)C(=O)N[C@@H](C)C(=O)N[C@@H](CCC(N)=O)C(=O)N[C@@H](CCCCN)C(=O)NCC(=O)O)C(C)C)[C@@H](C)CC` (stereo partly drawn) [Compound 12, N{Epsilon-24}-[(4S)-4-carboxy-4-[[(4S)-4-carboxy-4-[[(4S)-4-carboxy-4-[[4-[(19-carboxynonadecanoylamino)methyl]cyclohexanecarbonyl]amino]butanoyl]amino]-butanoyl]amino]butanoyl]-[Aib2,Nle14,Arg18,Aib20,Lys24]-hGIP(1-31)] (H-Y[Aib]EGTFISDYSIA[Nle]DKIRQ[Aib]DFVK([γGlu-γGlu-γGlu-X1])WLLAQKG-OH), the half-life in series [1] is 132 h. On human GIP receptor, this compound gave an EC50 of 0.0712 nM.

For the compound “H-Y[Aib]EGTFISDYSIA[Nle]DKIHQQDFVK([γGlu-γGlu-γGlu-C18 diacid])WLLAQKGKEDDWKHNITQ [Compound 39, N{Epsilon-24}-[(4S)-4-carboxy-4-[[(4S)-4-carboxy-4-[[(4S)-4-carboxy-4-(17-carboxyheptadecanoylamino)butanoyl]amino]butanoyl]amino]butanoyl]-[Aib2,Nle14,Lys24,Glu33,Asp34]-hGIP]”, the EC50 at human glucagon receptor was over 100 nM; on human GLP-1 receptor it was over 100 nM; on human GIP receptor, 0.0059 nM.

In the case of “H-Y[Aib]EGTFISDYSIA[Nle]DKIHQQDFVK([γGlu-γGlu-γGlu-C18 diacid])WLLAQKGKEEDWKHNITQ [Compound 38, N{Epsilon-24}-[(4S)-4-carboxy-4-[[(4S)-4-carboxy-4-[[(4S)-4-carboxy-4-(17-carboxyheptadecanoylamino)butanoyl]amino]butanoyl]amino]butanoyl]-[Aib2,Nle14,Lys24,Glu33,Glu34]-hGIP]”, the 50% effective concentration (EC50) was over 100 nM at human glucagon receptor, over 100 nM at human GLP-1 receptor and 0.009 nM on human GIP receptor.

Turning to “Y[Aib]EGTFISDYSIA[Nle]DKIHQQDFVK([AEEA-AEEA-γGlu-C18 diacid])WLLAQKGKEDDWKHNITQ [Compound 36, N{Epsilon-24}-[2-[2-[2-[[2-[2-[2-[[(4S)-4-carboxy-4-(17-carboxyheptadecanoylamino)butanoyl]amino]ethoxy]ethoxy]acetyl]amino]ethoxy]ethoxy]acetyl]-[Aib2,Nle14,Lys24,Glu33,Asp34]-hGIP]”, the EC50 on human glucagon receptor is over 100 nM; at human GLP-1 receptor, over 100 nM; on human GIP receptor, 0.00597 nM.
